Test results published in patent publication US12318399B2 (priority 2022, dated 2025).

Tested on: endometrial cancer organoids
Experiment: Patient-derived endometrial cancer organoid cell viability (CellTiter-Glo)
Assay type: cell-based, human
Settings: for cell viability compared to the IC50 value: 75 μM in combination with BSHE at an IC50, FIG. 17A; for Flavonoids screening on endometrial cancer cell organoids, Average: viability normalized to vehicle = 100; for cell viability: FIG. 17B; for efficacy in combination with FSHE: combined with IC50 FSHE, FIG. 18
Experimental: Development of patient derived organoids: The patient derived organoids were created as follows: the patient's tissue sample was collected after surgery and bathed in Hank's Balanced Salt Solution (HBSS) (Hyclone, SH30031.02) with 1% Pencillin/Streptomycin (P/S) (Life Technologies, 15070-063) on ice. Then the sample was washed three times with Dulbecco's phosphate-buffered saline (DPBS) and 1% P/S on a shaker (70 rpm) for 15 minutes each. The tissue was then transferred into a presterilized cell-culture hood to mince it finely with a sterile blade. All minced parts were then digested in an enzyme named Accumax (Innovative Cell Technologies Inc., AM105-500) for 2.5 hours at room temperature. After 2.5-hour incubation, the whole digested tissue mince was transferred in another enzyme, TrypLE express, (Gibco, 12604-021) for another 45 minutes in a 37° C. water bath. During this time the solution was continuously agitated in every 5 minutes interval. After 45 minutes of incubation, the solutions were passed through 70 μm filter on a 50 mL falcon tube. The filter was removed, and the flowthrough with the cells was collected in 5% FBS AD+++ medium (comprising 1% TS, 2% B27, 1% N2, 25% WRN, hegf 50 ng/ml, hfgf 10-100 ng/ml, Nicotinamide 1 mM, N-acetyl cysteine 1.25 mM, Primocin 0.2%, Estrogen 2 nm, A8301 0.5 μM, and Y27632). This cell suspension was centrifuged at 1000 rpm for 5 minutes at room temperature to get the cell pellet for counting. Upon checking under hemocytometer cell number was calculated and processed for organoid culture. After checking under a microscope if we found RBC contamination in the final cell suspension, then we used Red Blood Cell Lysis Buffer (Roche Diagnostics, 11814389001) to get rid of the excess RBC. Human patient cells from endometrial cancer were grown and maintained in a humidified chamber at 37° C. with 5% CO2.
To culture patient-derived organoids, 2-3×10^3 cells were plated in a prewarmed (37° C.) 96-well plate in […] of Matrigel (5% FBS AD+++ medium) per well. Individual patient cell organoid was cultured separately in different plates. Individual patient cells were handled separately to reduce the chance of cross-contamination. After mixing cells with Matrigel, […] droplets were placed in wells and put in a 37° C. incubator with 5% CO2 for 30 minutes. Upon solidification of the Matrigel droplet with cells inside, the plate was placed inside a sterile hood and immersed the Matrigel droplet in 200 μL of organoid growth media. Cells were allowed to grow into mature organoids for 14 days. […] All treatments were done in triplicate, including vehicle-only controls (Dimethyl sulfoxide in culture medium at the highest concentration used for drug treatments).
Note: IC50 is the 50% inhibitory concentration which is conventionally used to determine drug potency with cell-based cytotoxicity tests. Similarly, all of the antioxidants were tested under the same protocol.
To assess the cell viability in organoids after treatments, CellTiter-Glo® Luminescent Assay (Promega #G7572) was used. In brief, on day 14 of organoid culture, the matrigel droplet in each well with organoid inside was immersed in 100 μL of fresh growth media and 100 μL of CellTiter-Glo® reagent following the manufacturer's guideline. Blank wells containing only media and CellTiter-Glo® reagent (no cells) were also included in each plate. Then the plates were put on a shaker at 110 RPM at room temperature for […] minutes to induce cell lysis, followed by 25 minutes at room temperature to stabilize the luminescent signal. Each step after adding the CellTiter-Glo® reagent was performed in the dark. Luminescence was measured on a FLUOstar OPTIMA plate reader (BMG Lab technologies, Offenburg, Germany). Analysis was performed by normalizing treatment values to the vehicle control and plotting them as a percentage of the vehicle control.

Compound | effect on cells as monotherapy (50 μM, monotherapy, FIG. 16) | cell viability compared to the IC50 value | Flavonoids screening on endometrial cancer cell organoids, Average (10 μM, monotherapy) | Flavonoids screening on endometrial cancer cell organoids, Average (20 μM, monotherapy) | Flavonoids screening on endometrial cancer cell organoids, Average (30 μM, monotherapy) | Flavonoids screening on endometrial cancer cell organoids, Average (40 μM, monotherapy) | Flavonoids screening on endometrial cancer cell organoids, Average (50 μM, monotherapy) | Flavonoids screening on endometrial cancer cell organoids, Average (60 μM, monotherapy) | Flavonoids screening on endometrial cancer cell organoids, Average (80 μM, monotherapy) | Flavonoids screening on endometrial cancer cell organoids, Average (100 μM, monotherapy) | also measured
O=C1c2c(O)cc(O)cc2O[C@H](c2ccc(O)c(O)c2)[C@H]1O [taxifolin] | inducing cell proliferation | significant reduction cell viability | – | – | – | – | – | – | – | – | –
O=c1c(O)c(-c2ccccc2)oc2cc(O)cc(O)c12 [Galangin] | – | – | 98.74 | 98.58 | 96.96 | 69.20 | 49.62 | 33.55 | 25.66 | 29.73 | –
O=c1c(O)c(-c2ccc(O)c(O)c2)oc2cc(O)cc(O)c12 [Quercetin] | – | – | 95.16 | 89.43 | 85.33 | 58.16 | 34.67 | 25.59 | 7.88 | 0.00 | –
O=c1cc(-c2ccc(O)c(O)c2)oc2cc(O)cc(O)c12 [Luteolin] | – | – | 90.54 | 56.75 | 33.96 | 1.39 | 0.00 | 0.00 | 0.00 | 0.00 | –
N.N.O=C([O-])C1(C(=O)[O-])CCC1.[Pt+2] [carboplatin, reference compound] | – | – | – | – | – | – | – | – | – | – | relative improvement on increasing the chemotherapeutic drug by 5× (carboplatin alone): about 18%; viability (carboplatin alone, 50 μg/mL (lowest dose)): about 50%; viability (carboplatin alone, highest dose): about 32%
CC(=O)O[C@H]1C(=O)[C@@]2(C)[C@H]([C@H](OC(=O)c3ccccc3)[C@]3(O)C[C@H](OC(=O)[C@H](O)[C@@H](NC(=O)c4ccccc4)c4ccccc4)C(C)=C1C3(C)C)[C@]1(OC(C)=O)CO[C@@H]1C[C@@H]2O [paclitaxel, reference compound] | – | – | – | – | – | – | – | – | – | – | relative reduction in viability on increasing the dose by 5× (paclitaxel alone, 4 nm/ml to 20 nm/ml): about 12%
O=c1cc(-c2ccccc2)oc2cc(O)cc(O)c12 [chrysin] | – | – | – | – | – | – | – | – | – | – | cell viability (10 μM combined with the IC50 of the BSHE): 3.04%; growth (10 μM, monotherapy, FIG. 16): 178.99%; change in viability, combination vs monotherapy (10 μM, with IC50 of BSHE): ~175%; cell viability (12.5 μM combined with the IC50 of the BSHE): ~0%; growth (25 μM, monotherapy, FIG. 16): 188.45%; growth (50 μM, monotherapy, FIG. 16): 125.21%; viability (100 μM, monotherapy, FIG. 16): 56.74; efficacy in combination with FSHE: 2nd most effective combination
O=c1c(O)c(-c2ccccc2)oc2ccccc12 [3-hydroxyflavone] | – | – | 61.62 | 48.26 | 51.28 | 41.00 | 37.88 | 35.89 | 34.31 | 34.65 | –
C=C1CC/C=C(\C)CC[C@@H]2[C@@H]1CC2(C)C [β-caryophyllene, reference compound] | inducing cell proliferation | significant reduction cell viability | – | – | – | – | – | – | – | – | –
Cc1c(C)c2c(c(C)c1O)CC[C@@](C)(CCC[C@H](C)CCC[C@H](C)CCCC(C)C)O2 [tocopherol, reference compound] | inducing cell proliferation | significant reduction cell viability | – | – | – | – | – | – | – | – | efficacy in combination with FSHE: made the IC50 FSHE ineffective; impact on cell viability alone in the carrier (monotherapy in DMSO): virtually no impact on cell viability
